# From patent US11926613B2, “Kinase inhibitors for the treatment of central and peripheral nervous system disorders” (UNIVERSITY OF MIAMI, priority 2017, dated 2024)
# Read-outs that look alike come from different tables or passages of the source.
# Tests used:
# [1] = tested on: Primary Neurons; test: HCS neurite outgrowth assay (High Content Screening with Primary Neurons); assay type: cell-based
# [2] = tested on: neurons from hippocampi of E18 rat embryos; test: Neurite growth length (% NTL) in cultured E18 rat hippocampal neurons, 9-point dose response, 48 hours; assay type: cell-based; details: Rattus norvegicus, Neuron, 48 h; for activity at 0.078 µM: 78 nM; for activity at 0.156 µM: 156 nM; for activity at 0.312 µM: 312 nM; for activity at 0.625 µM: 625 nM
# Procedure: PRE-COATING CULTURE PLATES: On the day before the experiment, 96-well plates were pre-coated by plating 50 μl of Poly-D-lysine solution (PDL, 0.5 mg/mL) in each well. The next morning, the plates were washed four or five times with HBSS or PBS (150 μl/rinse), then left in buffer until cell plating
# PREPARING THE CELLS: A timed pregnant rat carrying E18 embryos was euthanized using an IACUC approved method. In a laminar flow hood, the embryos were removed and placed in a petri dish containing Hank's Balanced Salt Solution (HBSS) with 20 mM HEPES, pH 7.3. Pup brains were dissected (see Meberg et al., 2003) and hippocampi were collected in 15 mL a conical tube containing Hibernate E with SM1 (2% v/v).
# Dissociation media was prepared by combining 4.5 mL of Hibernate E (without SM1) with 0.5 mL of trypsin and 100 μl of DNAse solution. The medium over the hippocampi was carefully removed and replaced with dissociation solution, then incubated at 37° C. for 15-20 minutes, occasionally swirling the tube.
# Using flame polished cotton plugged Pasteur pipettes, the dissociation media was removed, and then 5 mL of Hibernate E containing SM1 were added. The tube was swirled to thoroughly wash the tissue. The tissue was allowed to settle to the bottom of the tube, and the rinse solution was carefully removed. This step was repeated 5 times to dilute out trypsin and DNAse and remove any debris from lysed cells.
# The final rinse media was removed from the tube and 1 pipette-full (1-2 mL) of Hibernate E with SM1 was added. Using the flame-polished Pasteur pipette (pre-wetted with rinse media), the tube was triturated until all cells had dissociated and no visible chunks of tissue remained. Fewer than ten triturations were typically performed. The volume was adjusted to 8-12 mL using Hibernate E containing SM1, the well was mixed and cell concentration was determined.
# PLATING: The cells were diluted in culture media (NbActiv4 Cell-culture media) to a final concentration of 10,000 cells/mL. The HBSS was aspirated from PDL coated plates, and 150 μL of cell solution was loaded in the middle 48 wells at 1500 cells per well. Water was loaded in the outer wells to decrease evaporation from edge wells. Cells were allowed to adhere for 2 hours in tissue culture incubator prior to treatment.
# TREATMENT: Compounds were diluted to various concentrations to provide 9 dose response concentrations of 20 μM, 10 μM, 5, μM, 2.5 μM, 1.25 μM, 0.625 μM, 0.3125 μM, 0.15625 μM, and 0.078125 μM. The plates were cultured for 48 hours, exposed to the compound at the various dose response concentrations.
# FIXING THE CULTURES: The culture medium was removed from the plates and immediately replaced with 100-200 μl of warm (37° C.) 4% paraformaldehyde (PFA) solution in phosphate-buffered saline (PBS). The cells were fixed for 15-20 minutes at room temperature, and then rinsed with PBS (200 μl/well×3).
# STAINING AND IMAGING: The PBS was removed and replaced with 100 μl of blocking/permeabilization buffer (PBS, 0.2% fish gelatin, 0.03% Triton X-100, 0.02% NaN3), then incubated overnight at 4° C. To this was added 100 μl of primary antibody solution (mouse anti-Beta III tubulin in blocking buffer) and incubate overnight at 4° C. The wells were rinsed with PBS (200 μl×3), which was then removed and replaced with 100 μl of secondary antibody solution (Goat anti-mouse Alexa 488, 10 μg/ml Hoechst 33342, 0.2% fish gelatin, 0.02% azide, in PBS). The plate was shaken gently on a rotating shaker for 2 hours, then rinsed with PBS (200 μl×5).
# The plate was imaged using a Cellomics ArrayScan VTI in 2 different channels for nuclear staining (Hoechst) and cell body/neurite staining (βIII-tubulin). Typically, nine fields per well were imaged with a 5× objective and automatically traced by the Neuronal Profiling Bioapplication. To get reproducible results, at least 200-300 valid neurons were measured per condition. […]
Compound,EC50 ([1]; Primary neuron) [µM],activity at 0.078 µM [2] [%],activity at 0.156 µM [2] [%],activity at 0.312 µM [2] [%],activity at 0.625 µM [2] [%],activity at 1.25 µM [2] [%],activity at 2.5 µM [2] [%],activity at 5 µM [2] [%],activity at 10 µM [2] [%],activity at 20 µM [2] [%],EC50 [1] [µM]
"O=C(N[C@@H]1CCC[C@H]1NC(=O)c1ccc(C(=O)c2ccccc2)cc1)c1ccncc1 [Example A15, N-[(1R,2R)-2-(4-benzoylbenzamido)cyclopentyl]pyridine-4-carboxamide]",7.84,98.5,106,111,114,110,107,110,122,136,
"COc1ccc(O)c(C(=O)c2ccc(C(=O)N[C@@H]3CNC[C@H]3NC(=O)c3ccc(O)cc3)cc2)c1F [Example A37, N-[(3R,4R)-4-[4-(2-fluoro-6-hydroxy-3-methoxybenzoyl)benzamido]pyrrolidin-3-yl]-4-hydroxybenzamide]",> 20,100,109,113,107,113,124,132,155,212,
"COc1cc(C(=O)c2ccccc2O)ccc1C(=O)N[C@@H]1CNC[C@H]1NC(=O)c1ccnc(N)n1 [Example A68, 2-amino-N-[(3R,4R)-4-[4-(2-hydroxybenzoyl)-2-methoxybenzamido]pyrrolidin-3-yl]pyrimidine-4-carboxamide]",1.24,101,95.7,94.8,91.2,102,101,96.8,102,94.3,
"O=C(N[C@@H]1c2ccccc2C[C@H]1NC(=O)c1ccncc1)c1ccc(C(=O)c2ccccc2)cc1 [Example A11, N-[(1R,2R)-1-(4-benzoylbenzamido)-2,3-dihydro-1H-inden-2-yl]pyridine-4-carboxamide]",5.58,104,102,87.4,93.8,91.7,98.5,94.6,110,110,
"COc1ccc(O)c(C(=O)c2ccc(C(=O)NCCNC(=O)c3ccncc3)cc2)c1F [Example A27, 4-(2-fluoro-6-hydroxy-3-methoxybenzoyl)-N-{2-[(pyridin-4-yl)formamido]ethyl}benzamide]",7.9,103,101,107,118,110,105,117,141,150,
"O=C(c1ccccc1)c1ccc(C(=O)N2CCN(C(=O)c3ccncc3)CC2)cc1 [Example A7, 1-(4-benzoylbenzoyl)-4-(pyridine-4-carbonyl)piperazine]",1.67,97,94.8,95.7,91.2,90.8,88.3,92,86.4,91.8,
"O=C(N[C@@H]1CNC[C@H]1NC(=O)c1ccc(C(=O)c2cc(Cl)ccc2O)cc1)c1ccncc1 [Example A85, N-[(3R,4R)-4-[4-(5-chloro-2-hydroxybenzoyl)benzamido]pyrrolidin-3-yl]pyridine-4-carboxamide]",3.82,134,144,140,153,177,219,376,534,426,
"CCOc1ccc(O)c(C(=O)c2ccc(C(=O)N[C@@H]3CNC[C@H]3NC(=O)c3ccncc3)cc2)c1 [Example A90, N-((3R,4R)-4-(4-(5-ethoxy-2-hydroxybenzoyl)benzamido)pyrrolidin-3-yl)isonicotinamide]",1.79,,,,,,,,,,
"CCc1ccc(O)c(C(=O)c2ccc(C(=O)N[C@@H]3CNC[C@H]3NC(=O)c3ccncc3)cc2)c1 [Example A95, N-((3R,4R)-4-(4-(5-ethyl-2-hydroxybenzoyl)benzamido)pyrrolidin-3-yl)isonicotinamide]",9.77,,,,,,,,,,
"CC(C)(C)Oc1ccc(O)c(C(=O)c2ccc(C(=O)N[C@@H]3CNC[C@H]3NC(=O)c3ccncc3)cc2)c1 [Example A98, N-((3R,4R)-4-(4-(5-(tert-butoxy)-2-hydroxybenzoyl)benzamido)pyrrolidin-3-yl)isonicotinamide]",9.97,,,,,,,,,,
"2-(4-(((3R,4R)-4-(isonicotinamido)pyrrolidin-3- yl)carbamoyl)benzoyl)-4-methoxyphenyl benzoate [Example A87]",,,,,,,,,,,13.1
"O=C(N[C@@H]1CNC[C@H]1NC(=O)c1ccc(C(=O)c2cc(OC(F)(F)F)ccc2O)cc1)c1ccncc1 [Example A96, N-((3R,4R)-4-(4-(2-hydroxy-5-(trifluoromethoxy)benzoyl)benzamido)pyrrolidin-3-yl)isonicotinamide]",1.45,,,,,,,,,,
"2-(4-(((3R,4R)-4-(isonicotinamido)pyrrolidin-3- yl)carbamoyl)benzoyl)-4-methoxyphenyl acetate [Example A89]",,,,,,,,,,,8.08
"O=C(N[C@@H]1CNC[C@H]1NC(=O)c1ccc(C(=O)c2cc(C(F)(F)F)ccc2O)cc1)c1ccncc1 [Example A99, N-((3R,4R)-4-(4-(2-hydroxy-5-(trifluoromethyl)benzoyl)benzamido)pyrrolidin-3-yl)isonicotinamide]",2.36,,,,,,,,,,
"O=C(N[C@@H]1CNC[C@H]1NC(=O)c1ccc(C(=O)c2cc(OCc3ccccc3)ccc2O)cc1)c1ccncc1 [Example A97, N-((3R,4R)-4-(4-(5-(benzyloxy)-2-hydroxybenzoyl)benzamido)pyrrolidin-3-yl)isonicotinamide]",11.3,,,,,,,,,,
"O=C(N[C@@H]1CNC[C@H]1NC(=O)c1ccc(C(=O)c2cc(F)ccc2O)cc1)c1ccncc1 [Example A91, N-((3R,4R)-4-(4-(5-fluoro-2-hydroxybenzoyl)benzamido)pyrrolidin-3-yl)isonicotinamide]",3.41,,,,,,,,,,
"COc1ccc(O)c(C(=O)c2ccc(C(=O)N[C@@H]3CCCNC[C@H]3NC(=O)c3ccncc3)cc2)c1F [Example A94, N-((3R,4R)-4-(4-(2-fluoro-6-hydroxy-3-methoxybenzoyl)benzamido)azepan-3-yl)isonicotinamide]",0.813,,,,,,,,,,
"O=C(N[C@@H]1CNC[C@H]1NC(=O)c1ccc(C(=O)c2cc(-c3ccccc3)ccc2O)cc1)c1ccncc1 [Example A93, N-((3R,4R)-4-(4-(4-hydroxy-[1,1′-biphenyl]-3-carbonyl)benzamido)pyrrolidin-3-yl)isonicotinamide]",13.3,,,,,,,,,,
